Data: US7282508B2, “Substituted 4-phenyl-4-(1H-imidazol-2-yl)-piperidine derivatives and their use as selective non-peptide delta opioid agonists” (Janssen Pharmaceutica N.V., priority 2001, dated 2007)

| melting point | Compound |
| --- | --- |
| 251.6 °C | CCOC(=O)N1CCC(c2ccccc2)(c2nccn2Cc2ccc(C(=O)O)cc2)CC1 [Compound 8] |
| 84.2 °C | CCN/C(=N/C#N)N1CCC(c2ccccc2)(c2nccn2Cc2ccccc2)CC1 [Compound 4] |
| 122.7 °C | O=C(c1ccccc1)N1CCC(c2ccccc2)(c2nccn2Cc2ccccc2)CC1 [Compound 2] |
| 149.1 °C | CCOC(=O)N1CCC(c2ccccc2)(c2nccn2Cc2ccc(C(=O)OC)cc2)CC1 [Compound 3] |
